The record followed here is patent publication US7741064B2, “Materials and methods relating to G-protein coupled receptor oligomers” (The University Court of the University of Glasgow, priority 2003, dated 2010).

Experiment [1] has as its target co-expressed histamine H1 receptor-Gly208AlaG11α + Leu133Asp histamine H1 receptor-G11α (Homo sapiens, UniProt P35367, L133D). As to conditions: HEK293 membranes; two mutants co-expressed; 1 mM histamine (FIG. 5(4)). The procedure: (§1) [^35S]GTPγS binding experiments were initiated by the addition of membranes containing defined amounts of the fusion constructs (see Results for details) to an assay buffer (20 mM HEPES (pH 7.4), 3 mM MgCl2, 100 mM NaCl, 1 μM guanosine 5′-diphosphate, 0.2 mM ascorbic acid, 50 nCi [^35S]GTPγS) containing the indicated concentrations of receptor ligands. Non-specific binding was determined in the same conditions but in the presence of 100 μM GTPγS. Reactions were incubated for 15 min at 30° C. and were terminated by the addition of 0.5 ml of ice cold buffer, containing 20 mM HEPES (pH 7.4), 3 mM MgCl2 and 100 mM NaCl.
(§2) Finally, the immunocomplexes were washed twice with solubilization buffer, and bound [^35S]GTPγS measured by liquid-scintillation spectrometry.

In experiment [2] the target is histamine H1 receptor-Gly208Ala G11α fusion protein (UniProt P21278+P35367, G208A). To be noted: HEK293 membranes; 1 mM histamine (FIG. 5(2)). The procedure:
as §1, §2

Experiment [3] deals with Leu133Asp histamine H1 receptor-G11α fusion protein (Homo sapiens, UniProt P35367, L133D). As to conditions: HEK293 membranes; 1 mM histamine (FIG. 5(3)). The procedure: as §1, §2
In experiment [4] the target is wild type histamine H1 receptor-G11α fusion protein (Homo sapiens, UniProt P35367). To be noted: HEK293 membranes; 1 mM histamine (FIG. 5(1)). The procedure: as §1, §2
Experiment [5] has as its target histamine H1 receptor-G11α co-transfected with Leu151Asp α1b-adrenoceptor (UniProt P21278+P35367). To be noted: EF88 cells; 1 mM histamine; versus histamine H1 receptor-G11α alone (FIG. 12B).
Experiment [6] concerns the target T1, Leu133Asp histamine H1 receptor-G11α co-expressed with α1b-adrenoceptor-Gly208Ala G11α (UniProt P18841+P35367, L133D).
T1 construct: the full length c-myc-tagged α1b-adrenoceptor-G11α fusion protein; expressed in transfected cells; host or cells: EF88 mouse embryo fibroblasts (Gqα/G11α double knock-out)
Kind of experiment: [Ca2+]i imaging in EF88 cells. The experiment is classed as cell-based. As to conditions: phenylephrine 10 μM, histamine 1 mM (FIG. 7A). As for the experimental part:
EF88 cells were grown in DMEM supplemented with 10% (v/v) heat inactivated foetal bovine serum and L-glutamine (1 mM) in a 95% air and 5% CO2 atmosphere at 37° C. A portion of the cells harvested during trypsinization were plated on to glass coverslips and after a 24 h growth period they were transfected using LipofectAMINE (Life Technologies Inc.) according to the manufacturers' instructions. After 3 h cells were washed twice with OPTIMEM 1 and then cultured in DMEM growth medium for a further 24 h. A total of 3 μg of pCDNA3 containing the relevant cDNA species were used to transfect each coverslip. Transfected EF88 cells were loaded with the Ca^2+-sensitive dye Fura-2 by incubation (15-20 min, 37° C.) under reduced light in DMEM growth medium containing the dye's membrane-permanent acetoxymethylester form (1.5 μM).

Experiment [7] has as its target histamine H1 receptor-G11α fusion co-expressed with isolated Leu151Asp α1b-adrenoceptor (UniProt P21278+P35367). To be noted: in comparison to membranes expressing the same level of only the histamine H1 receptor-G11α fusion; 1 mM histamine (FIG. 12A).
Experiment [8] deals with T2, Leu151Aspα1b-adrenoceptor-G11α co-expressed with histamine H1 receptor-Gly208Ala G11α (UniProt P18841+P35367, L151D).
T2 construct: the full length c-myc-tagged α1b-adrenoceptor-G11α fusion protein; expressed in transfected cells; host or cells: EF88 mouse embryo fibroblasts (Gqα/G11α double knock-out)
Type of experiment: cell-based. To be noted: EF88 cells; phenylephrine 10 μM, histamine 1 mM (FIG. 7B).

In a further experiment the test system is c-myc-Nt-TM1α1b-G11α. The experiment is described as follows: [35S]GTPγS binding recovered in anti-c-myc immunoprecipitates, HEK293 cells. The experiment is classed as biochemical. As to conditions: 10 μM phenylephrine (FIG. 13B).
The target in experiment [9] is T3, wild type α1b-adrenoceptor-G11α fusion protein (Mesocricetus auratus, UniProt P18841).
T3 construct: the full length c-myc-tagged α1b-adrenoceptor-G11α fusion protein; expressed in transfected cells; host or cells: HEK293 (membranes)
T3 sequence (P18841 1-515): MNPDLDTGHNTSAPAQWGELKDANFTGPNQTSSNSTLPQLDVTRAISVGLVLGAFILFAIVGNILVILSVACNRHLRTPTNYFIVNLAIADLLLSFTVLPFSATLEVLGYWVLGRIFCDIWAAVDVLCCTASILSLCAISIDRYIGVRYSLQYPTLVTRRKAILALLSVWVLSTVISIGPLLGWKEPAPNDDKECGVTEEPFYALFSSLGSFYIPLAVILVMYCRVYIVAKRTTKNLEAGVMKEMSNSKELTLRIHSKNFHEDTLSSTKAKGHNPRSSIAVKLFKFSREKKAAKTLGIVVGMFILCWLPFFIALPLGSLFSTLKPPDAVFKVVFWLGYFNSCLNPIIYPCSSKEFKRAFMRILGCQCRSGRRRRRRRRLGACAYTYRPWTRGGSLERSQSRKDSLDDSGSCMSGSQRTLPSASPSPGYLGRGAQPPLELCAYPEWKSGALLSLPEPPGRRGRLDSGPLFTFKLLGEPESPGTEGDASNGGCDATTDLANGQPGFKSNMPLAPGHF
Kind of experiment: [35S]GTPγS binding, membranes of HEK293 cells. The experiment is classed as biochemical. To be noted: 10 μM phenylephrine (FIG. 4A).
Experimental: (§3) [^35S]GTPγS binding experiments were initiated by the addition of membranes containing defined amounts of the fusion constructs (see Results for details) to an assay buffer (20 mM HEPES (pH 7.4), 3 mM MgCl2, 100 mM NaCl, 1 μM guanosine 5′-diphosphate, 0.2 mM ascorbic acid, 50 nCi [^35S]GTPγS) containing the indicated concentrations of receptor ligands. Non-specific binding was determined in the same conditions but in the presence of 100 μM GTPγS. Reactions were incubated for 15 min at 30° C. and were terminated by the addition of 0.5 ml of ice cold buffer, containing 20 mM HEPES (pH 7.4), 3 mM MgCl2 and 100 mM NaCl. The samples were centrifuged at 16,000 g for 15 min at 4° C., and the resulting pellets were resuspended in solubilization buffer (100 mM Tris, 200 mM NaCl, 1 mM EDTA, 1.25% Nonidet P-40) plus 0.2% sodium dodecylsulfate. Samples were precleared with Pansorbin (Calbiochem), followed by immunoprecipitation with CQ antiserum (Mitchell et al., 1993).

In experiment [10] the target is T4, Leu151Aspα1b-adrenoceptor-G11α fusion protein (Mesocricetus auratus, UniProt P18841, L151D).
T4 construct: the full length c-myc-tagged α1b-adrenoceptor-G11α fusion protein; expressed in transfected cells; host or cells: HEK293 (membranes)
T4 sequence (P18841 1-515 L151D): T3 sequence (P18841 1-515) with L151D
The experiment is described as follows: [35S]GTPγS binding, membranes of HEK293 cells. Type of experiment: biochemical. To be noted: 10 μM phenylephrine (FIG. 4A(3)). Background: Binding of GTPγS marks nucleotide exchange on a G protein.
Experimental: as §3

Experiment [11] has as its target T5, co-expressed α1b-adrenoceptor-Gly208AlaG11α + Leu151Aspα1b-adrenoceptor-G11α (Mesocricetus auratus, UniProt P18841, L151D).
T5 construct: the full length c-myc-tagged α1b-adrenoceptor-G11α fusion protein; expressed in transfected cells; host or cells: HEK293 (membranes)
The experiment is described as follows: [35S]GTPγS binding, membranes of HEK293 cells. Type of experiment: biochemical. To be noted: two non-functional mutants co-expressed, 10 μM phenylephrine (FIG. 4A(4)).
Experimental: as §3

In experiment [12] the target is T6, α1b-adrenoceptor-Gly208AlaG11α fusion protein (UniProt P18841+P21278, G208A).
T6 construct: the full length c-myc-tagged α1b-adrenoceptor-G11α fusion protein; expressed in transfected cells; host or cells: HEK293 (membranes)
Kind of experiment: [35S]GTPγS binding, membranes of HEK293 cells. The experiment is classed as biochemical. As to conditions: 10 μM phenylephrine (FIG. 4A(2)).
Experimental: as §3

Each structure is given as a SMILES string. Where a chain is given by its changes, count along the chain named. Entries after “also recorded” stand apart in the source; their conditions may differ.

T1 sequence (P35367 whole entry L133D, one chain of several, the tested form may be a part): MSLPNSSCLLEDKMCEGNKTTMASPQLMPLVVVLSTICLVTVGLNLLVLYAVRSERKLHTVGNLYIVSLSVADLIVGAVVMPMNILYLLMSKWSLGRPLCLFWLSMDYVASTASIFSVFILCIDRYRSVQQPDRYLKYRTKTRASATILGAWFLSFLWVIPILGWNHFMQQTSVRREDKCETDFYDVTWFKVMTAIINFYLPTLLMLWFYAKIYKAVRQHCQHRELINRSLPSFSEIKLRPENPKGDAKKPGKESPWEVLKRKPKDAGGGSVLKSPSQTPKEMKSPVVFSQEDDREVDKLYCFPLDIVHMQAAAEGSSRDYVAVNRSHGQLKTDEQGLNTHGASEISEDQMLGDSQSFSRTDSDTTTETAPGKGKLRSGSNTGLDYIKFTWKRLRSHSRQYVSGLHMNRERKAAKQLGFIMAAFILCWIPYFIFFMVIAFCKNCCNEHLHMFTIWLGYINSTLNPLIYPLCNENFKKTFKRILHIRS
T1 sequence (P21278 whole entry partner, one chain of several, the tested form may be a part): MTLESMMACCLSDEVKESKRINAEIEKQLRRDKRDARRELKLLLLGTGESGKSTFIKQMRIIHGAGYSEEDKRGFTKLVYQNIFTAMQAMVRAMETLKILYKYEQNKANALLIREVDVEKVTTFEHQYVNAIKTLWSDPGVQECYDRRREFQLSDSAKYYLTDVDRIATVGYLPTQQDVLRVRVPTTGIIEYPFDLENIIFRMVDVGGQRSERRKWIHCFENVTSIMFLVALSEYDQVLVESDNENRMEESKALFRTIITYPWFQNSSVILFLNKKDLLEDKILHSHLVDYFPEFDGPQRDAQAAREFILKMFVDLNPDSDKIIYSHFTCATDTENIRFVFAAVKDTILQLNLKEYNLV
T1 sequence (P21278 whole entry G208A partner, one chain of several, the tested form may be a part): as the sequence (P21278 whole entry partner, one chain of several, the tested form may be a part) above, with G208A counted along it
T2 sequence (P21278 whole entry G208A, the tested form may be a part): as the sequence (P21278 whole entry partner, one chain of several, the tested form may be a part) above, with G208A counted along it
T2 sequence (P18841 whole entry L151D, the tested form may be a part): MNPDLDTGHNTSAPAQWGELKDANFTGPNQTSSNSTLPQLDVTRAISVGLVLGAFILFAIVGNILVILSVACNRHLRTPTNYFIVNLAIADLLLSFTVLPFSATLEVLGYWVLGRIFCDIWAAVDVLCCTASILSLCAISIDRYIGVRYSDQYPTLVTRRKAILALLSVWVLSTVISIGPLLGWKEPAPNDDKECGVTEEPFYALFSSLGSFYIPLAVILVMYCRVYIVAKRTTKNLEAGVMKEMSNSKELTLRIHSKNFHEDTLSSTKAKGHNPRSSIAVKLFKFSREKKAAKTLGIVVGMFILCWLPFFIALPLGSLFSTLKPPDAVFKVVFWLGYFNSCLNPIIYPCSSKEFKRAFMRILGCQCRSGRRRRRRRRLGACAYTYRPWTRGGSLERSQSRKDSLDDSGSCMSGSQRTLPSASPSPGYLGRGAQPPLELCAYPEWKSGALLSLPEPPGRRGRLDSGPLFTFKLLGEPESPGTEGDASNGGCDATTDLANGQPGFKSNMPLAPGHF
T2 sequence (P21278 whole entry, stated change not applied, the tested form may be a part): as the sequence (P21278 whole entry partner, one chain of several, the tested form may be a part) above
T2 sequence (P35367 whole entry, the tested form may be a part): as the sequence (P35367 whole entry L133D, one chain of several, the tested form may be a part) above, with D133L counted along it
Chain of wild type histamine H1 receptor-G11α fusion protein (P35367 whole entry, the tested form may be a part): as the sequence (P35367 whole entry L133D, one chain of several, the tested form may be a part) above, with D133L counted along it
Chain of histamine H1 receptor-Gly208Ala G11α fusion protein (P35367+P21278 fused P21278:G208A): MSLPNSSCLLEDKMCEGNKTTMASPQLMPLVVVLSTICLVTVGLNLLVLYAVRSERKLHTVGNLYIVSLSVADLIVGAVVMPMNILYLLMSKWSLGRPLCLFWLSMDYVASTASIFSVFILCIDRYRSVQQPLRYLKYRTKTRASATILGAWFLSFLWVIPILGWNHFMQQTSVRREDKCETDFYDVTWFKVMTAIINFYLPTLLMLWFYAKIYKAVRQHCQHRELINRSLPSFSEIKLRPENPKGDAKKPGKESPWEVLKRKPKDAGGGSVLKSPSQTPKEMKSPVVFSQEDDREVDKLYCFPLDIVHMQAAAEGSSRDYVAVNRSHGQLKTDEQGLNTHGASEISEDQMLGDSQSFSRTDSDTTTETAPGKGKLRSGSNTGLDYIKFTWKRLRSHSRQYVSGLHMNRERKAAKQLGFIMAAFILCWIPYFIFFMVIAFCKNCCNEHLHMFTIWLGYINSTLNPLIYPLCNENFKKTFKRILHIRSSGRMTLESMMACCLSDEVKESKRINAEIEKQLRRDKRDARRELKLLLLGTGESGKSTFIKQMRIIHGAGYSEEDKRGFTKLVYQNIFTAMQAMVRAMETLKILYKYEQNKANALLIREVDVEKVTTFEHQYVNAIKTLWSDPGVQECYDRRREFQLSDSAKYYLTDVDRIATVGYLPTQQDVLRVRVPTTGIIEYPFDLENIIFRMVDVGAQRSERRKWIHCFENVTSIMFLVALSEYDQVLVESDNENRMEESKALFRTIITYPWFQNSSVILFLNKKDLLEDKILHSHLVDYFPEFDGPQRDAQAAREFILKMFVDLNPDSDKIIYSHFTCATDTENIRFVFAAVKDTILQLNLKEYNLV
Chain of Leu133Asp histamine H1 receptor-G11α fusion protein (P35367 whole entry L133D, the tested form may be a part): as the sequence (P35367 whole entry L133D, one chain of several, the tested form may be a part) above
Experimental for c-myc-Nt-TM1α1b-G11α: as §3

In the case of `NCCc1c[nH]cn1` [histamine], the “agonist activation of the G protein ([35S]GTPγS binding)” value in experiment [1] is given as “reconstituted agonist activation”. For the same molecule, the “stimulation of [35S]GTPγS binding” value in experiment [2] is reported as “absent”; in experiment [3] it was “absent”; in [4] it was “large stimulation”. In addition, the “histamine stimulation of intracellular [Ca2+]” value in experiment [5] is listed as “reduced markedly”. Besides, the results for the “elevation of intracellular [Ca2+]” value in [6] and in [8] were “little or no change” and “caused elevation of intracellular [Ca^2+]; also recorded: elevation of intracellular calcium”, respectively. Moreover, in experiment [7], the “histamine stimulation of [35S]GTPγS binding” value is recorded as “significantly reduced”.

With `CNC[C@H](O)c1cccc(O)c1` [phenylephrine], the results for the “elevation of intracellular [Ca2+]” value in experiment [6] and in experiment [8] were “able to elevate intracellular [Ca^2+]; also recorded: elevation of intracellular calcium concentration” and “did not; also recorded: little or no change”, respectively. Further, the “stimulation of [35S]GTPγS binding in anti-c-myc immunoprecipitates” value in the experiment on c-myc-Nt-TM1α1b-G11α (co-expressed with the isolated α1b-adrenoceptor) is listed as “did not result in significant stimulation”. For the same molecule, in the experiment with c-myc-Nt-TM1α1b-G11α (construct expressed alone), the “[35S]GTPγS binding in response to agonist” value is “did not bind”. In experiment [9], the “stimulation of the binding of [35S]GTPγS” value is on record as “large stimulation”. Further, the “stimulation of [35S]GTPγS binding” value is “unable to stimulate binding” in experiment [10] and “essentially eliminated” in experiment [12]. The “agonist-mediated binding of [35S]GTPγS” value in experiment [11] is on record as “reconstituted phenylephrine-mediated binding”.
